“Also recorded” adds a separate entry of the source.
Legend:
[1] = In vitro cytotoxicity evaluation HepG2 (MTT); type: cell-based, human; conditions: human, CC50 HepG2 (µM) ± SD
Experimental: For all molecules, the selectivity index was calculated as following SI = CC50/EC50.
Triplicate assays were performed for each sample. Each plate-well was then microscopically examined for possible precipitate formation before the medium was aspirated from the wells. Next, 100 µL of MTT (3-(4,5-dimethyl-2-thiazolyl)-2,5-diphenyl -2H-tetrazolium bromide) solution (0.5 mg/mL in medium without FBS) was added to each well. […] After this time, the MTT solution was removed and DMSO (100 μL) was added to dissolve the resulting blue formazan crystals. Plates were shaken vigorously (700 rpm) for 10 min. The absorbance was measured at 570 nm with 630 nm as reference wavelength using a BIO-TEK ELx808 Absorbance Microplate Reader (LabX, Midland, ON, Canada). DMSO was used as blank and doxorubicin (purchased from Sigma Aldrich) as positive control. Cell viability was calculated as a percentage of control (cells incubated without compound). […] CC50 values to represent the mean value calculated from three independent experiments.

HepG2 cell line = experiment: In vitro alkaline comet assay; type: cell-based, human
Experimental: The human hepatocarcinoma cell line HepG2 was obtained from the American Type Culture Collection (ATCC, ref. HB-8065). Cells were cultured in Eagle’s minimum essential medium (EMEM, ref. ATCC®® 30-2003TM) and supplemented with 10% heat-inactivated foetal bovine serum, 100 U/mL penicillin, and 0.1 mg/mL streptomycin (all from Gibco). Cells were maintained at 37 °C in a humidified atmosphere with 5% CO2 and used in passage number 11 to 15. Two concentrations of the compound 3i (3.2 and 16 µM) were tested at 2 different times of incubation (2 and 72 h). Briefly, HepG2 cells were seeded at 1.13 × 10^5 cells/mL in 6-well plates (3 mL of cell suspension per well) and incubated at 37 °C in a humidified atmosphere with 5% CO2. After 24 and 94 h of incubation, cells were treated with different concentrations of the compound or the vehicle (0.5% dimethylsulfoxide, DMSO) for 72 and 2 h, respectively. Additionally, in the 2 h treatment plate, cells in an additional well were treated with 1 mM MMS as positive control for the comet assay. After treatment, medium was removed from the wells and cells were washed with phosphate buffered saline (PBS). Finally, cells were trypsinized and trypsin was neutralized with fresh medium. From this point, cells were kept ice-cold to avoid DNA repair.
The standard alkaline comet assay was employed for the detection of DNA strand breaks (SBs) and alkali-labile sites (ALS) in cells treated with molecule 3i. Trypsinized HepG2 cells were centrifuged at 125 × g for 5 min at 4 °C and resuspended in cold PBS at 1 x 10^6 cells/mL. For the preparation of the agarose gels, 30 µL of cell suspension were mixed with 140 µL of 1% low melting point agarose in PBS at 37 °C and 2 aliquots of 70 µL of cell/agarose mixture were placed on agarose-precoated microscope slides. Each droplet was covered with a 20 × 20 mm coverslip and, after 2–3 min on a cold metal plate, the coverslips were removed. Then, slides were immersed in lysis solution (2.5 M NaCl, 0.1 M Na2EDTA, 0.01 M Tris base, pH 10, and 1% Triton X-100) at 4 °C for 1 h. After lysis, slides were transferred to the electrophoresis tank and incubated for 40 min at 4 °C in the electrophoresis solution (0.3 M NaOH, 1 mM Na2EDTA, pH > 13) to allow DNA unwinding. After that, electrophoresis was carried out at 1 V/cm for 20 min (4 °C). Then, gels were neutralized and washed by immersing the slides in PBS for 10 min and distilled water for another 10 min (both at 4 °C). Gels were then air-dried at room temperature. Comets were stained by adding 30 µL of […] of 4,6- diamidino-2-phenylindole (DAPI) on top of each gel and placing 22 × 22 mm coverslips on top. Slides were incubated with DAPI at room temperature for 30 min before the analysis. The semi-automated image analysis system Comet Assay IV (Instem, Stone, UK) was used to evaluate 50 comets per gel (i.e., 100 comets/condition). The percentage of DNA in tail was the descriptor used for each comet.
The median percentage of DNA in tail for 50 comets was calculated for each of the duplicate gels in each experiment, and the mean of the two medians were then calculated. The mean percentage of DNA in tail of 3 independent experiments and the standard deviation (SD) were calculated.

[2] = system: P. falciparum ART-resistant strain F32-ART5; experiment: Standard in vitro chemo-sensitivity assay, F32-ART5; type: cell-based; conditions: Plasmodium falciparum, F32, 48 h, read-out: Mean ± SEM EC50 values F32-ART5
Experimental: (§1) The Plasmodium falciparum ART-resistant strain F32-ART5 and its tween ART-sensitive strain F32-TEM [33, 41] were cultivated at 37 °C with 5% CO2 in human red blood cells (EFS, French Blood Bank) diluted to 2% hematocrit in RPMI-1640 medium (Biowest, Nuaillé, France) supplemented with 5% human serum (EFS, French Blood Bank), as previously reported.
(§2) The chemosensitivity assay was carried out in 96-well culture plates on synchronized ring-stage parasites at 1% parasitemia obtained after D-sorbitol treatment. The antiplasmodial activities were evaluated using the SYBR Green I method. Parasites were exposed for 48 h to a range of concentrations of the different tested compounds. Each drug concentration was tested in triplicates. Parasite pellets were then washed in 1× PBS prior to lysing red blood cells at −20 °C overnight. Then, the plates were thawed and 100 µL of each well were transferred into a black 96-well plate. Next, 100 µL per well of SYBR Green I (Thermo Fisher) diluted at a final concentration of 2× in lysis buffer (20 mM Tris base pH 7.5, 5 mM EDTA, 0.008% w/v saponin, 0.08% w/v Triton X-100) were added and left to incubate for 1 h at room temperature prior to reading the plates on BioTek FLx800 Microplate Fluorescence Reader (λexcitation = 485 nm, λemission = 528 nm). Relative EC50 values were determined using GraphPad Prism software.

[3] = system: P. falciparum ART-sensitive strain F32-TEM; experiment: Standard in vitro chemo-sensitivity assay, F32-TEM; type: cell-based; conditions: Plasmodium falciparum, F32, 48 h, read-out: Mean ± SEM EC50 values F32-TEM
Experimental: as §1, §2

SMILES: O=[N+]([O-])c1ccc(Oc2nc3ccccc3nc2C(Cl)(Cl)Cl)cc1 [3i, 2-(4-Nitrophenoxy)-3-trichloromethylquinoxaline]
- CC50 at 72 h [1]: 32 ± 6.1 µM
- In vitro comet assay: DNA strand breaks or alkali labile sites (genotoxicity) (HepG2 cell line; HepG2, 3.2 and 16 µM, short (2 h) or long (72 h) exposition): not genotoxic; also recorded: did not induce DNA strand breaks or alkali labile sites
- In vitro comet assay result (HepG2 cell line; HepG2, 2 h, 3.2 µM): negative
- In vitro comet assay result (HepG2 cell line; HepG2, 2 h, 16 µM): negative
- In vitro comet assay result (HepG2 cell line; HepG2, 72 h, 3.2 µM): negative
- In vitro comet assay result (HepG2 cell line; HepG2, 72 h, 16 µM): negative
- EC50 [2]: 400 ± 105 nM
- EC50 [3]: 392 ± 34 nM
